The values below come from PubChem BioAssay AID652125 (The Scripps Research Institute Molecular Screening Center, 2013).

Molecules are shown by their SMILES. The source made the active and inactive calls. How the calls were made is not given here. Bounds are passed on as bounds.

In this experiment the target is Perilipin-1 (Homo sapiens) + 1-acylglycerol-3-phosphate O-acyltransferase ABHD5 (Homo sapiens) (UniProt O60240+Q8WTS1). Nature of the experiment: PubChem AID 652125. To be noted: biochemical ABHD5-PLIN1 interaction, luminescence.

`CN1C(=O)c2ccccc2Sc2ccc(NC(=O)NCCCc3ccccc3)cc21`: the IC50 (commonly the midpoint of a concentration-inhibition curve) was 1.73 µM.

On to `CN(C)CCCN(C(=O)Cc1ccc(F)cc1)c1nc2ccc(Cl)cc2s1`, for which the IC50 result was “inactive”.

As for `CN1C(=O)c2ccccc2Sc2ccc(NC(=O)NCCc3ccccc3)cc21`, the half-inhibitory concentration (IC50) was 3.57 µM.

On to `CN1C(=O)c2ccccc2Oc2ccc(NC(=O)c3cc4ccccc4[nH]3)cc21`, for which the IC50 was > 39.8 µM (inactive).

Regarding `O=C(Cc1cccc(F)c1)N1CCN(S(=O)(=O)c2ccc3c(c2)OCCO3)CC1`, the IC50 was > 39.8 µM (inactive).

Regarding `O=C(Cc1ccc2c(c1)CCCC2)N1CCN(S(=O)(=O)c2ccc3c(c2)OCCO3)CC1`, the IC50 result is “inactive”.

As for `O=C(c1nc(S(=O)(=O)Cc2ccccc2)ncc1Cl)N(Cc1ccccc1)Cc1ccco1`, the half-maximal inhibitory concentration (IC50) is 1.41 µM.

For the molecule `CN(C(=O)c1nc(S(C)(=O)=O)ncc1Cl)c1ccccc1`, the IC50 was 3.43 µM.

Consider `O=C(CCn1cnc2ccccc21)N1CCN(S(=O)(=O)c2ccc3c(c2)OCCO3)CC1`, for which the IC50 was > 39.8 µM (inactive).

Take `COc1ccc(CC(=O)N2CCN(S(=O)(=O)c3ccc4c(c3)OCCCO4)CC2)cc1`: the IC50 was > 39.8 µM (inactive).

Take `CCS(=O)(=O)c1ncc(Cl)c(C(=O)Nc2ccc(C)cc2)n1`: the IC50 was 3.53 µM.

Consider `CN1C(=O)c2ccccc2Sc2ccc(NC(=O)NCCc3cccs3)cc21`, for which the IC50 is 4.31 µM.

As for `CN(C)CCCN(C(=O)C1CCCCC1)c1nc2cc(Br)ccc2s1`, the IC50 result is “inactive”.

On to `CCCC(=O)Nc1ccc2c(c1)C(=O)N(C)c1ccccc1O2`, for which the IC50 is > 39.8 µM (inactive).

On to `Cc1ccc(CS(=O)(=O)c2ncc(Cl)c(C(=O)Nc3cccc(C(F)(F)F)c3)n2)cc1`, for which the IC50 is 2.11 µM.

In the case of `CCCS(=O)(=O)c1ncc(Cl)c(C(=O)Nc2ccc(C(=O)OC)cc2)n1`, the half-maximal inhibitory concentration (IC50) was 5.42 µM.

With `Cc1ccc(CS(=O)(=O)c2ncc(Cl)c(C(=O)N3CCN(C)CC3)n2)cc1`, the IC50 is 5.75 µM.

In the case of `NS(=O)(=O)c1ccc(NC(=O)c2nc(S(=O)(=O)Cc3ccccc3)ncc2Cl)cc1`, the IC50 was 4.22 µM.

For the molecule `COc1ccc(OCC(=O)Nc2ccc3c(c2)N(C(C)C)C(=O)c2ccccc2O3)cc1`, the IC50 was > 39.8 µM (inactive).

As for `COc1ccc(CCNC(=O)c2nc(S(=O)(=O)Cc3ccc(F)cc3)ncc2Cl)cc1OC`, the 50% inhibitory concentration (IC50) was 2.5 µM.

With `COc1ccc(CC(=O)N2CCCN(S(=O)(=O)c3ccc(C)cc3)CC2)cc1OC`, the IC50 was > 39.8 µM (inactive).

On to `O=C(Nc1ccc2ccccc2c1)c1nc(S(=O)(=O)Cc2ccccc2)ncc1Cl`, for which the half-inhibitory concentration (IC50) is 2.2 µM.

Consider `Cc1ccc(NC(=O)c2nc(S(C)(=O)=O)ncc2Cl)cc1`, for which the IC50 was 3.5 µM.

Regarding `CCCNC(=O)Nc1ccc2c(c1)N(CC)C(=O)c1ccccc1S2`, the IC50 entry is “inactive”.

As for `O=C(C1COc2ccccc2O1)N1CCN(S(=O)(=O)c2ccc3c(c2)OCCO3)CC1` (configuration not stated), the IC50 was > 39.8 µM (inactive).

Regarding `CC(NC(=O)CN1CCN(S(=O)(=O)c2ccc3c(c2)OCCCO3)CC1)c1cc2ccccc2o1` (configuration not stated), the IC50 was > 39.8 µM (inactive).

Turning to `Cc1ccc(CS(=O)(=O)c2ncc(Cl)c(C(=O)Nc3nnc(C(C)C)s3)n2)cc1`, the IC50 was > 39.8 µM (inactive).

Turning to `Cc1ccc2c(CC(=O)N3CCN(S(=O)(=O)c4ccc5c(c4)OCCCO5)CC3)coc2c1C`, the IC50 is 3.74 µM.

For `CN(C)CCCN(C(=O)CCc1ccccc1)c1nc2ccc(Cl)cc2s1`, the IC50 result was “inactive”.

On to `CN(C)CCCN(C(=O)c1cc2ccccc2oc1=O)c1nc2ccc(Cl)cc2s1`, for which the IC50 result is “inactive”.

For `CS(=O)(=O)c1ncc(Cl)c(C(=O)Nc2ccc(C(F)(F)F)cc2)n1`, the half-maximal inhibitory concentration (IC50) was 1.42 µM.

On to `CCCC(=O)Nc1ccc2c(c1)C(=O)N(C)c1cc(C)ccc1O2`, for which the IC50 is > 39.8 µM (inactive).

Regarding `CCCCCNC(=O)Nc1ccc2c(c1)Sc1ccccc1C(=O)N2C`, the IC50 was > 39.8 µM (inactive).

`O=C(CCc1c[nH]c2ccccc12)N1CCN(S(=O)(=O)c2ccc3c(c2)OCCO3)CC1`: the IC50 is > 39.8 µM (inactive).

In the case of `CN(C)CCCN(C(=O)C1CCCCC1)c1nc2cc(Cl)ccc2s1`, the IC50 is > 39.8 µM (inactive).

Consider `CC(C)N1C(=O)c2ccccc2Oc2ccc(NC(=O)c3ccccc3)cc21`, for which the IC50 is > 39.8 µM (inactive).

For `CCS(=O)(=O)c1ncc(Cl)c(C(=O)Nc2ccc(S(N)(=O)=O)cc2)n1`, the 50% inhibitory concentration (IC50) is 6.72 µM.

For `CN1C(=O)c2ccccc2Oc2ccc(NC(=O)c3cccs3)cc21`, the IC50 is > 39.8 µM (inactive).

Regarding `Cc1ccc2cc(CC(=O)N3CCN(S(=O)(=O)c4ccc5c(c4)OCCO5)CC3)oc2c1`, the IC50 result is “inactive”.

Turning to `CCCCCCCNC(=O)Nc1ccc2c(c1)Sc1ccccc1C(=O)N2C`, the IC50 entry was “inactive”.

With `CCCCCCNC(=O)Nc1ccc2c(c1)Sc1ccccc1C(=O)N2C`, the IC50 is > 39.8 µM (inactive).

Take `CCCS(=O)(=O)c1ccc(Cl)c(C(=O)Nc2ccc(C(=O)OCC)cc2)c1`: the concentration for half-maximal inhibition (IC50) was 5.32 µM.

For `Cc1ccc(CS(=O)(=O)c2ncc(Cl)c(C(=O)Nc3cccc4ccccc34)n2)cc1`, the IC50 was 2.29 µM.

In the case of `Cc1ccc(CS(=O)(=O)c2ncc(Cl)c(C(=O)NCc3ccc4c(c3)OCO4)n2)cc1`, the IC50 was 3.2 µM.

As for `O=C(CCc1nc2ccccc2s1)N1CCN(S(=O)(=O)c2ccc3c(c2)OCCO3)CC1`, the IC50 entry was “inactive”.

Regarding `CCc1ccc2c(CC(=O)N3CCN(S(=O)(=O)c4ccc5c(c4)OCCO5)CC3)coc2c1`, the 50% inhibitory concentration (IC50) is 2.54 µM.

Turning to `CCCC(=O)N(CCCN1CCOCC1)c1nc2ccc(Cl)cc2s1`, the IC50 was > 39.8 µM (inactive).
